From patent publication US9073940B2, “Tricyclic pyrazol amine derivatives” (MERCK SERONO SA, priority 2009, dated 2015)

Tested on: 4 PI3K isoforms (Human recombinant GST-PI3K)
Experiment: PI3K scintillation proximity assay, best IC50 obtained with the four isoforms (alpha, beta, delta, gamma)
Type: biochemical
Settings: best IC50 obtained with the four isoforms of PI3K; read-out: Best potency measured on the 4 PI3K isoforms

SMILES | IC50
O=C(c1nn(-c2cccc(-c3ccoc3)c2)c2c1CS(=O)(=O)c1ccccc1-2)N1CCOCC1 [Example 197, 1-[3-(3-Furyl)phenyl]-3-(morpholin-4-ylcarbonyl)-1,4-dihydrothiochromeno[4,3-c]pyrazole 5,5-dioxide] | 0.826 µM
O=C(c1nn(-c2cccc(-c3cccnc3)c2)c2c1CS(=O)(=O)c1ccccc1-2)N1CCOCC1 [Example 198, 3-(Morpholin-4-ylcarbonyl)-1-(3-pyridin-3-ylphenyl)-1,4-dihydrothiochromeno[4,3-c]pyrazole 5,5-dioxide] | 0.28 µM
CCc1nc(-c2cccc(-n3nc(C(=O)N4CCOCC4)c4c3-c3ccccc3S(=O)(=O)C4)c2)no1 [Example 199, 1-[3-(5-Ethyl-1,2,4-oxadiazol-3-yl)phenyl]-3-(morpholin-4-ylcarbonyl)-1,4-dihydrothiochromeno[4,3-c]pyrazole 5,5-dioxide] | 2.59 µM
Cc1nc(-c2cccc(-n3nc(C(=O)N4CCOCC4)c4c3-c3ccccc3S(=O)(=O)C4)c2)n[nH]1 [Example 200, 1-[3-(5-Methyl-1H-1,2,4-triazol-3-yl)phenyl]-3-(morpholin-4-ylcarbonyl)-1,4-dihydrothiochromeno[4,3-c]pyrazole 5,5-dioxide] | 4.86 µM
O=C(c1nn(C2CCCCC2)c2c1CS(=O)(=O)c1sccc1-2)N1CCOCC1 [Example 201, 1-Cyclohexyl-3-(morpholin-4-ylcarbonyl)-1,4-dihydrothieno[3′,2′:5,6]thiopyrano[4,3-c]pyrazole 5,5-dioxide] | 0.302 µM
Cc1cccc2c1S(=O)(=O)Cc1c(C(=O)N3CCOCC3)nn(-c3ccccc3)c1-2 [Example 202, 6-Methyl-3-(morpholin-4-ylcarbonyl)-1-phenyl-1,4-dihydrothiochromeno[4,3-c]pyrazole 5,5-dioxide] | 1.74 µM
O=C(c1nn(-c2ccc3[nH]ncc3c2)c2c1CS(=O)(=O)c1ccccc1-2)N1CCOCC1 [Example 203, 1-(1H-Indazol-5-yl)-3-(morpholin-4-ylcarbonyl)-1,4-dihydrothiochromeno[4,3-c]pyrazole 5,5-dioxide] | 1.64 µM
O=C(c1nn(-c2ccc3nn(Cc4ccccc4)cc3c2)c2c1CS(=O)(=O)c1ccccc1-2)N1CCOCC1 [Example 204, 1-(2-Benzyl-2H-indazol-5-yl)-3-(morpholin-4-ylcarbonyl)-1,4-dihydrothiochromeno[4,3-c]pyrazole 5,5-dioxide] | 2.08 µM
CN(C)S(=O)(=O)c1cccc(-n2nc(C(=O)N3CCOCC3)c3c2-c2ccccc2S(=O)(=O)C3)c1 [Example 207, N,N-Dimethvl-3-[3-(morpholin-4-ylcarbonyl)-5,5-dioxidothiochromeno[4,3-c]pyrazol-1 (4H)-yl]benzenesulfonamide] | 0.641 µM
CN1CCC(Cn2nc(C(=O)N3CCOCC3)c3c2-c2ccccc2S(=O)(=O)C3)CC1 [Example 208, 1-[(1-Methylpiperidin-4-yl)methyl]-3-(morpholin-4-ylcarbonyl)-1,4-dihydrothiochromeno[4,3-c]pyrazole 5,5-dioxide] | 2.65 µM
O=C(Nc1cccc(-n2nc(C(=O)N3CCOCC3)c3c2-c2ccccc2S(=O)(=O)C3)c1)N1CCOCC1 [Example 209, N-{3-[3-(Morpholin-4-ylcarbonyl)-5,5-dioxidothiochromeno[4,3-c]pyrazol-1 (4H)-yl]phenyl)morpholine-4-carboxamide] | 3.59 µM
O=C(c1nn(-c2ccc(CN3CCOCC3)cc2)c2c1CS(=O)(=O)c1ncccc1-2)N1CCOCC1 [Example 211] | 0.4 µM
CNc1cccc2c1S(=O)(=O)Cc1c(C(=O)N3CCOCC3)nn(-c3ccccc3)c1-2 [Example 212, N-Methyl-3-(morpholin-4-ylcarbonyl)-1-phenyl-1,4-dihydrothiochromeno[4,3-c]pyrazol-6-amine 5,5-dioxide] | 3.51 µM
COCc1noc(-c2cccc(-n3nc(C(=O)N4CCOCC4)c4c3-c3ccccc3S(=O)(=O)C4)c2)n1 [Example 214, 1-{3-[3-(Methoxymethyl)-1,2,4-oxadiazol-5-yl]phenyl)-3-(morpholin-4-ylcarbonyl)-1,4-dihydrothiochromeno[4,3-c]pyrazole 5,5-dioxide] | 4.19 µM
O=C(c1nn(C2CCC(CN3CCOCC3)CC2)c2c1CS(=O)(=O)c1ccccc1-2)N1CCOCC1 (stereo not drawn) [Example 215, 3-(Morpholin-4-ylcarbonyl)-1-[4-(morpholin-4-ylmethyl)cyclohexyl]-1,4-dihydrothiochromeno[4,3-c]pyrazole 5,5-dioxide] | 0.912 µM
O=C(c1nn(-c2ccc(CN3CCOCC3)nc2)c2c1CS(=O)(=O)c1ccccc1-2)N1CCOCC1 [Example 216, 3-(Morpholin-4-ylcarbonyl)-1-[6-(morpholin-4-ylmethyl)pyridin-3-yl]-1,4-dihydrothiochromeno[4,3-c]pyrazole 5,5-dioxide] | 0.614 µM
O=C(c1nn(-c2ccc(CN3CCC(F)CC3)nc2)c2c1CS(=O)(=O)c1ccccc1-2)N1CCOCC1 [Example 217, 1-{6-[(4-Fluoropiperidin-1-yl)methyl]pyridin-3-yl}-3-(morpholin-4-ylcarbonyl)-1,4-dihydrothiochromeno[4,3-c]pyrazole 5,5-dioxide] | 1.2 µM
O=C(c1nn(C2CCCN(c3ccccc3)C2)c2c1CS(=O)(=O)c1ccccc1-2)N1CCOCC1 (stereo not drawn) [Example 218, 3-(Morpholin-4-ylcarbonyl)-1-(1-phenylpiperidin-3-yl)-1,4-dihydrothiochromeno[4,3-c]pyrazole 5,5-dioxide] | 0.468 µM
O=C(c1nn(C2CCCN(CCc3ccccc3)C2)c2c1CS(=O)(=O)c1ccccc1-2)N1CCOCC1 (stereo not drawn) [Example 219, 3-(Morpholin-4-ylcarbonyl)-1-[1-(2-phenylethyl)piperidin-3-yl]-1,4-dihydrothiochromeno[4,3-c]pyrazole 5,5-dioxide] | 0.711 µM
CC(C)(C)CCN1CCCC(n2nc(C(=O)N3CCOCC3)c3c2-c2ccccc2S(=O)(=O)C3)C1 (stereo not drawn) [Example 220, 1-[1-(3,3-Dimethylbutyl)piperidin-3-yl]-3-(morpholin-4-ylcarbonyl)-1,4-dihydrothiochromeno[4,3-c]pyrazole 5,5-dioxide] | 0.587 µM
O=C(c1nn(C2CCCN(CCC(F)(F)F)C2)c2c1CS(=O)(=O)c1ccccc1-2)N1CCOCC1 (stereo not drawn) [Example 222, 3-(Morpholin-4-ylcarbonyl)-1-[1-(3,3,3-trifluoropropyl)piperidin-3-yl]-1,4-dihydrothiochromeno[4,3-c]pyrazole 5,5-dioxide] | 0.149 µM
O=C(c1nn(C2CCCN(CCC3CCOCC3)C2)c2c1CS(=O)(=O)c1ccccc1-2)N1CCOCC1 (stereo not drawn) [Example 224, 3-(Morpholin-4-ylcarbonyl)-1-{1-[2-(tetrahydro-2H-pyran-4-yl)ethyl]piperidin-3-yl)-1,4-dihydrothiochromeno[4,3-c]pyrazole 5,5-dioxide] | 0.054 µM
COCCOCCN1CCCC(n2nc(C(=O)N3CCOCC3)c3c2-c2ccccc2S(=O)(=O)C3)C1 (stereo not drawn) [Example 225, 1-{1-[2-(2-Methoxyethoxy)ethyl]piperidin-3-yl}-3-(morpholin-4-ylcarbonyl)-1,4-dihydrothiochromeno[4,3-c]pyrazole 5,5-dioxide] | 0.635 µM
O=C(c1nn(-c2ccc(CN3CCCC3)cc2)c2c1CS(=O)(=O)c1ccccc1-2)N1CCOCC1 [Example 228, 3-(Morpholin-4-ylcarbonyl)-1-[4-(pyrrolidin-1-ylmethyl)phenyl]-1,4-dihydrothiochromeno[4,3-c]pyrazole 5,5-dioxide] | 0.285 µM
